The nature of data set [1]: Intrinsic viscosity [.eta.]. Type of data set: physicochemical. Conditions: 25° C., aqueous solution; concentration in g/100 ml. On the procedure:
The intrinsic viscosity, as used in the present invention, is [.eta.] defined by the following equation. [formula] wherein .eta.sp =(.eta.-.eta.o)/.eta.o =/.eta.o -1 in which .eta. is the viscosity (at 25° C. in aqueous solution) of the solution and .eta.o is the viscosity of the solvent; and C is the concentration in g/100 ml.

Data set [2] relates to Sarcoma 180. Briefly: Antitumor activity test using Sarcoma 180 in C3H/He mice. The following applies: 5 mg/kg/day, intraperitoneal, once a day for 10 days, fifth week. Type of data set: in vivo. The protocol: (§1) Starting 24 hours after the transplantation, the glucanpolyol of this invention was intraperitoneally administered once a day for 10 days. In the fifth week, the tumor was enucleated and its weight was compared with that in non-treated groups. The tumor inhibition ratio was calculated, and the number of tumors which completely regressed was observed.
(§2) The tumor inhibition ratio was calculated in accordance with the following equation. [formula] wherein C is the average weight of tumor in non-treated groups (10 mice per group),
(§3) T is the average weight of tumor in treated groups (10 mice per group).
(4) An antitumor activity test using Sarcoma 180 in C3H/He mice

For data set [3], the system named is Sarcoma 180. Briefly: Antitumor activity test using Sarcoma 180 in C57 BL/6 mice. In kind it is in vivo. The following applies: 1 mg/kg/day, intraperitoneal, once a day for 10 days, fifth week. On the procedure:
(§4) The ascites cells of Sarcoma 180 were inoculated peritoneally in ICR-JCL mice having a body weight of about 23 g. […] Starting 24 hours after the transplantation, the glucanpolyol of this invention was intraperitoneally administered once a day for 10 days. In the fifth week, the tumor was enucleated and its weight was compared with that in non-treated groups. The tumor inhibition ratio was calculated, and the number of tumors which completely regressed was observed.
as §2, §3
(6) An antitumor activity test using Sarcoma 180 in C57 BL/6 mice
Six million Sarcoma 180 cells were transplanted into the subcutaneous portion of the right inguinal part of the C57 BL/6 mice having a body weight of about 20 g, and then the same operation as in (1) above was performed.

In data set [4] the test system is Sarcoma 180. Briefly: Antitumor activity test using Sarcoma 180 in Balb/c mice. In kind it is in vivo. The following applies: 1 mg/kg/day, intraperitoneal, once a day for 10 days, fifth week. On the procedure: as §4, §2, §3
(5) An antitumor activity test using Sarcoma 180 in Balb/c mice
Six million Sarcoma 180 cells were transplanted into the subcutaneous portion of the right inguinal part of the Balb/c mice having a body weight of about 23 g, and then, the same operation as in (1 ) above was performed.

Data set [5] relates to NTF-reticulum cell sarcoma. Put plainly: Antitumor activity test using NTF-reticulum cell sarcoma in ICR-JCL mice. Type of data set: in vivo. Conditions: 1 mg/kg/day, intraperitoneal, once a day for 10 days, fifth week. On the procedure:
as §4, §2, §3
(9) An antitumor activity test using NTF-reticulum cell sarcoma in ICR-JCL mice
Six million NFT-reticulum cell sarcoma cells were transplanted into the subcutaneous portion of the right inguinal part of ICR-JCL mice having a body weight of about 23 g, and then, the same operation as in (1) above was performed.

The test system of the next data set is Ehrlich Carcinoma. Briefly: Antitumor activity test using Ehrlich Carcinoma in ICR-JCL mice. The following applies: intraperitoneal, once a day for 10 days, fifth week. Type of data set: in vivo. On the procedure:
as §1, §2, §3
(2) An antitumor activity test using Ehrlich Carcinoma in ICR-JCL mice

In data set [6] the test system is Sarcoma 180. Put plainly: Antitumor activity test using Sarcoma 180 in ICR-JCL mice. The following applies: 5 mg/kg/day, intraperitoneal, once a day for 10 days, fifth week. In kind it is in vivo. The protocol: (1) An antitumor activity test using Sarcoma 180 in ICR-JCL mice
as §1, §2, §3

The test system of a further data set is CCM-adenocarcinoma. Briefly: Antitumor activity test using CCM-adenocarcinoma in ICR-JCL mice. In kind it is in vivo. Conditions: 1 mg/kg/day, intraperitoneal, once a day for 10 days, fifth week. The protocol:
as §4, §2, §3
(8) An antitumor activity test using CCM-adenocarcinoma in ICR-JCL mice
Six million CCM-adenocarcinoma cells were transplanted into the subcutaneous portion of the right inguinal part of ICR-JCL mice having a body weight of about 23 g, and then the same operation as in (1) above was performed.

Data set [7] relates to Sarcoma 180. Briefly: Antitumor activity test using Sarcoma 180 in ddY mice. Type of data set: in vivo. The following applies: 1 mg/kg/day, intraperitoneal, once a day for 10 days, fifth week. The protocol:
as §4, §2, §3
(7) An antitumor activity test using Sarcoma 180 in ddY mice
Six million Sarcoma 180 cells were transplanted into the subcutaneous portion of the right inguinal part of ddY mice having a body weight of about 23 g, and then, the same operation as in (1) above was performed.

The subject of another data set is Meth-A. Briefly: Antitumor activity test using Meth-A in Balb/c mice. In kind it is in vivo. The following applies: 5 mg/kg/day, intraperitoneal, once a day for 10 days, fifth week. The protocol: as §1, §2, §3
(3) An antitumor activity test using Meth-A in Balb/c mice

In the case of β-1,3-glucanpolyol [Example 7], the Intrinsic viscosity [.eta.] in [1] came out at 8.55 dL/g.

Turning to β-1,3-glucanpolyol [Example 2], the “Average weight of tumor” value in the data set on Sarcoma 180 [2] is on record as 3.50 g; in the data set on Sarcoma 180 [3], 0.21 g; in the data set on Sarcoma 180 [4] it was 0.09 g; in [5], 0.37 g; in the data set with Ehrlich Carcinoma (1 mg/kg/day), 1.27 g; with Ehrlich Carcinoma (5 mg/kg/day) it was 0.83 g. The “Average weight of tumor” value in the data set with Sarcoma 180 [6] worked out at 0.30 g; in the data set with CCM-adenocarcinoma, 0.61 g; with Sarcoma 180 [7], 1.08 g; in the data set on Meth-A it was 6.73 g. Besides, the Complete regression in the data set with Sarcoma 180 [2] is listed as 4/10; in the data set on Sarcoma 180 [3], 8/10; in the data set with Sarcoma 180 [4], 8/10; in data set [5] it was 8/10; in the data set with Ehrlich Carcinoma (1 mg/kg/day), 6/10; in the data set on Ehrlich Carcinoma (5 mg/kg/day), 7/10. The Complete regression is on record as 8/10 in the data set with Sarcoma 180 [6], 8/10 in the data set on CCM-adenocarcinoma, 7/10 in the data set on Sarcoma 180 [7] and 0/10 in the data set with Meth-A. Also, the Tumor inhibition ratio in the data set with Sarcoma 180 [2] came out at 72.9%; with Sarcoma 180 [3] it was 94.1%; in the data set on Sarcoma 180 [4] it was 97.5%; in data set [5], 93.6%; with Ehrlich Carcinoma (1 mg/kg/day), 91.5%; with Ehrlich Carcinoma (5 mg/kg/day) it was 94.4%. In addition, the Tumor inhibition ratio in the data set with Sarcoma 180 [6] was determined as 97.3%; in the data set with CCM-adenocarcinoma, 95.0%; with Sarcoma 180 [7], 90.3%; in the data set on Meth-A it was 49.6%. Besides, the Intrinsic viscosity [.eta.] in [1] was 7.25 dL/g.

Values taken from patent US4398023A, “β-1,3-Glucanpolyol, process for preparation thereof, and utilization thereof” (Meito Sangyo Kabushiki Kaisha, priority 1979, dated 1983).
